Measured values published in patent US6949250B2, “Selective algaecides for control of cyanochloronta” (The United States of America as represented by the …, priority 2002, dated 2005).
≈ marks a conversion by molar mass, not a printed value. Where two headings read alike, the source gives them in different places.

How the values were obtained:
[1] = tested on: Selenastrum capricornutum; test: Rapid bioassay screening for selective algicides (LOEC, LCIC); format: cell-based; details: for MIC / minimal effective concentration: Selenastrum capricornutum; for MIC: read-out: LCIC (lowest-complete-inhibition concentration), Selenastrum capricornutum; for minimal effective concentration: read-out: LOEC (lowest-observed-effect concentration), Selenastrum capricornutum
From the text: (§1) These were screened in the laboratory by the method of Schrader et al. (K. K. Schrader, M. Q. de Regt, C. S. Tucker and S. O. Duke, A rapid bioassay for selective algicides. Weed Technol. (1997), vol. 11, pp. 767-774) for algicidal activity.
(§2) The anthraquinone derivatives were screened for selective toxicity towards Oscillatoria perornata, previously isolated from a Mississippi catfish pond, using the method of Schrader et al. (1997). The green alga Selenastrum capricornutum (obtained from the United States Environmental Protection Agency, Corvallis, Oreg.) was used as the representative green algal species in the bioassay since it is a common species found in southeastern United States catfish ponds. Absorbance readings were graphed, and graphs were used to determine the LOEC (lowest-observed-effect concentration) and the LCIC (lowest-complete-inhibition concentration) for each anthraquinone analog. In addition, a 96-hour 50% inhibition concentration (IC50) was determined for DNA1-19-1 and DNA2-59-1 by using the method described by Schrader et al. (1998b). Stock solutions of DNA1-19-1 and DNA2-59-1 were prepared so that final concentrations screened for 96-hour IC50 determinations were as follows: 1) 0, 0.01, 0.033, 0.1, 0.333, 1.0, 3.3, and 10.0 μM DNA1-19-1 for both O. perornata and S. capricornutum; 2) 0, 0.003, 0.01, 0.033, 0.1, 0.333, 1.0, and 3.333 μM DNA2-59-1 for O. perornata; and 3) 0, 0.1, 0.333, 1.0, 3.333, 10.0, 33.333, and 100.0 μM DNA2-59-1 for S. capricornutum. Estimation of the IC50 was determined by plotting 96-hour absorbance readings against logarithmic dilution values of the anthraquinone analogs. The screening results of the anthraquinone derivatives and commercially available analogs of anthraquinone are presented in Tables 1 and 2, respectively. The results in Table 1 reveal that DNA1-19-1 and DNA2-59-1 are the most promising analogs since these two compounds had the lowest LOEC and LCIC values for O. perornata (10 nM and 100 nM, respectively). Based upon IC50 results in Table 3, DNA2-59-1 appears to be more toxic and selective towards O. perornata than DNA1-19-1.
as §2, with “(A rapid bioassay for selective algicides. Weed Technol. (1997), vol. 11, pp. 767-774).” for “(1997).”, “(K. K. Schradar, M. Q. de Regt, P. D. Tidwell, C. S. Tucker and S. O. Duke, Selective growth inhibition of the musty-odor producing cyanobacterium Oscillatoria cf. chalybea by natural compounds. Bull. Environ. Contam. Toxicol. (1998a), vol.60, pp. 651-658).” for “(1998b).”, “The screening results of the anthraquinone derivatives and commercially available analogs of anthraquinone are presented in Tables 1 and 2, respectively. The results in Table 1 reveal that DNA1-19-1 and DNA2-59-1 are the most promising analogs since these two compounds had the lowest LOEC and LCIC values for O. perornata (10 nM and 100 nM, respectively). Based upon IC50 results in Table 3, DNA2-59-1 appears to be more toxic and selective towards O. perornata than DNA1-19-1.” left out

[2] = tested on: Oscillatoria perornata; test: as above; format: cell-based; details: for MIC: read-out: LCIC (lowest-complete-inhibition concentration), Oscillatoria perornata; for minimal effective concentration: read-out: LOEC (lowest-observed-effect concentration), Oscillatoria perornata
From the text: as §1, §2
as §2, with “(A rapid bioassay for selective algicides. Weed Technol. (1997), vol. 11, pp. 767-774).” for “(1997).”, “(K. K. Schradar, M. Q. de Regt, P. D. Tidwell, C. S. Tucker and S. O. Duke, Selective growth inhibition of the musty-odor producing cyanobacterium Oscillatoria cf. chalybea by natural compounds. Bull. Environ. Contam. Toxicol. (1998a), vol.60, pp. 651-658).” for “(1998b).”, “The screening results of the anthraquinone derivatives and commercially available analogs of anthraquinone are presented in Tables 1 and 2, respectively. The results in Table 1 reveal that DNA1-19-1 and DNA2-59-1 are the most promising analogs since these two compounds had the lowest LOEC and LCIC values for O. perornata (10 nM and 100 nM, respectively). Based upon IC50 results in Table 3, DNA2-59-1 appears to be more toxic and selective towards O. perornata than DNA1-19-1.” left out

[3] = Planktothrix perornata, rapid screening

Work on `CNc1cccc2c1C(=O)c1ccccc1C2=O` [1-(methylamino) anthraquinone, reference compound] yielded an MIC [1] of over 100 µM and an MIC ([2]; Planktothrix perornata) of 100 µM (≈ 23.7 µg/mL).
`O=C1c2ccccc2C(=O)c2cc(CNC3CC3)ccc21.O=P(O)(O)O` [DNA3-35-1, 2-[Methylamino-N-(cyclopropyl)]-9,10-anthraquinone monophosphate] was tested, and the “LCIC (lowest-complete-inhibition concentration), Selenastrum capricornutum” value ([1]; rapid screening) was 100,000 nM, the “LOEC (lowest-observed-effect concentration), Selenastrum capricornutum” value (from here on “LOEC … Selenastrum capricornutum”) ([1]; rapid screening) was 10,000 nM and the “LCIC (lowest-complete-inhibition concentration), Oscillatoria perornata” value ([2]; rapid screening) was 1,000 nM. For the same molecule, the “LOEC (lowest-observed-effect concentration), Oscillatoria perornata” value (“LOEC … Oscillatoria perornata” below) ([2]; rapid screening) was 1,000 nM.
For `O=C1c2ccccc2C(=O)c2cc(COCCOCCOCCO)ccc21` [DNA3-57-1, 2-Methylene-[2-[2-(2-hydroxyethoxy)ethoxy]ethoxy]-9,10-anthraquinone], the “LCIC (lowest-complete-inhibition concentration), Selenastrum capricornutum” value ([1]; rapid screening) was >100,000 nM, the “LOEC … Selenastrum capricornutum” value ([1]; rapid screening) was >100,000 nM and the “LCIC (lowest-complete-inhibition concentration), Oscillatoria perornata” value ([2]; rapid screening) was 10,000 nM. The minimal effective concentration ([2]; rapid screening) was 0.1 µM.
For `COCCOCCOc1ccc2c(c1)C(=O)c1ccccc1C2=O` [DNA3-5-1, 2-[2-(2-Methoxyethoxy)ethoxy]-9,10-anthraquinone], the MIC ([1]; rapid screening) was over 100 µM, the minimal effective concentration ([1]; rapid screening) was over 100 µM and the MIC [2, 3] was 10 µM (≈ 3.26 µg/mL). For the same molecule, the minimal effective concentration [2, 3] was 0.1 µM.
With `COCCOCCOCCOc1ccc2c(c1)C(=O)c1ccccc1C2=O` [DNA3-9-1, 2-[2-[2-(2-methoxyethoxy)ethoxy]ethoxy]-9,10-anthraquinone] the MIC ([1]; rapid screening) was over 100 µM, the minimal effective concentration ([1]; rapid screening) was over 100 µM and the MIC [2, 3] was 10 µM (≈ 3.7 µg/mL). It also gave a minimal effective concentration [2, 3] of 10 µM.
For `CCCNCc1ccc2c(c1)C(=O)c1ccccc1C2=O.O=P(O)(O)O` [DNA3-31-1, 2-[Methylamino-N-(propyl)]-9,10-anthraquinone monophosphate], the “LCIC (lowest-complete-inhibition concentration), Selenastrum capricornutum” value ([1]; rapid screening) was 10,000 nM, the “LOEC … Selenastrum capricornutum” value ([1]; rapid screening) was 10,000 nM and the “LCIC (lowest-complete-inhibition concentration), Oscillatoria perornata” value ([2]; rapid screening) was 1,000 nM. The “LOEC … Oscillatoria perornata” value ([2]; rapid screening) was 1,000 nM.
In the case of `COCCOCCOCCOCc1ccc2c(c1)C(=O)c1ccccc1C2=O` [DNA3-61-1, 2-methylene-[2-[2-(2-methoxyethoxy)ethoxy]ethoxy]-9,10-anthraquinone], the “LCIC (lowest-complete-inhibition concentration), Selenastrum capricornutum” value ([1]; rapid screening) is reported as >100,000 nM, the “LOEC … Selenastrum capricornutum” value ([1]; rapid screening) is reported as >100,000 nM and the “LCIC (lowest-complete-inhibition concentration), Oscillatoria perornata” value ([2]; rapid screening) is reported as 10,000 nM. For the same molecule, the minimal effective concentration ([2]; rapid screening) was 0.1 µM.
`O=C1c2ccccc2C(=O)c2cc(OCCOCCOCCO)ccc21` [DNA2-99-2, 2-[2-[2-(2-Hydroxyethoxy)ethoxy]ethoxy]-9,10-anthraquinone] showed an MIC ([1]; rapid screening) of over 100 µM, a minimal effective concentration ([1]; rapid screening) of over 100 µM and an MIC [2, 3] of 10 µM (≈ 3.56 µg/mL). It also gave a minimal effective concentration [2, 3] of 10 µM.
In the case of `COCCOc1cccc2c1C(=O)c1ccccc1C2=O` [DNA3-13-1, 1-(2-Methoxyethoxy)-9,10-anthraquinone], the MIC ([1]; rapid screening) is reported as over 100 µM, the minimal effective concentration ([1]; rapid screening) is reported as 0.01 µM and the MIC [2, 3] is reported as 10 µM (≈ 2.82 µg/mL). For the same molecule, the minimal effective concentration [2, 3] was 10 µM.
With `COCCOCCOCCOCCOc1cccc2c1C(=O)c1ccccc1C2=O` [DNA3-53-1, 1-[2-[2-[2-(2-Methoxyethoxy)ethoxy]ethoxy]ethoxy]-9,10-anthraquinone] the MIC ([1]; rapid screening) was over 100 µM, the minimal effective concentration ([1]; rapid screening) was 100 µM and the MIC [2, 3] was 100 µM (≈ 41.4 µg/mL). The minimal effective concentration [2, 3] was 10 µM.
With `CC(C)N(Cc1ccc2c(c1)C(=O)c1ccccc1C2=O)C(C)C.O=P(O)(O)O` [DNA2-49-1, 2-[Methylamino-N,N-(di-1′-methylethyl)]-9,10-anthraquinone monophosphate] the “LCIC (lowest-complete-inhibition concentration), Selenastrum capricornutum” value ([1]; rapid screening) was 1e+06 nM, the “LOEC … Selenastrum capricornutum” value ([1]; rapid screening) was 100,000 nM and the “LCIC (lowest-complete-inhibition concentration), Oscillatoria perornata” value ([2]; rapid screening) was 1,000 nM. The “LOEC … Oscillatoria perornata” value ([2]; rapid screening) was 1,000 nM.
In the case of `CCCC(C)NCc1ccc2c(c1)C(=O)c1ccccc1C2=O.O=P(O)(O)O` (centres unmarked) [DNA2-53-1, 2-[Methylamino-N-(1′-methylbutyl)]-9,10-anthraquinone monophosphate], the “LCIC (lowest-complete-inhibition concentration), Selenastrum capricornutum” value ([1]; rapid screening) is reported as 100,000 nM, the “LOEC … Selenastrum capricornutum” value ([1]; rapid screening) is reported as 100,000 nM and the MIC ([2]; rapid screening) is reported as 0.1 µM. It also gave a minimal effective concentration ([2]; rapid screening) of 0.1 µM.
`O=C1c2cccc(S(=O)(=O)O)c2C(=O)c2cccc(S(=O)(=O)O)c21` [anthraquinone-1,5-disulfonic acid, reference compound] was tested, and the MIC ([1]; rapid screening) was over 1000 µM and the MIC [2, 3] was over 1000 µM.
In the case of `CCN(CC)CCCNC(C)c1ccc2c(c1)C(=O)c1ccccc1C2=O` (centres unmarked) [DNA2-87-1, 2-[1′-Amino-N-(propyl-3″-N,N-diethylamino)ethyl]-9,10-anthraquinone], the “LCIC (lowest-complete-inhibition concentration), Selenastrum capricornutum” value ([1]; rapid screening) is reported as 100,000 nM, the “LOEC … Selenastrum capricornutum” value ([1]; rapid screening) is reported as 100,000 nM and the “LCIC (lowest-complete-inhibition concentration), Oscillatoria perornata” value ([2]; rapid screening) is reported as 100,000 nM. For the same molecule, the “LOEC … Oscillatoria perornata” value ([2]; rapid screening) was 1,000 nM.
With `COCCOCCOCCOCCOc1ccc2c(c1)C(=O)c1ccccc1C2=O` [DNA3-55-1, 2-[2-[2-[2-(2-Methoxyethoxy)ethoxy]ethoxy]ethoxy]-9,10-anthraquinone] the MIC ([1]; rapid screening) was over 100 µM, the minimal effective concentration ([1]; rapid screening) was over 100 µM and the MIC [2, 3] was 100 µM (≈ 41.4 µg/mL). The minimal effective concentration [2, 3] was 10 µM.
`Nc1cccc2c1C(=O)c1ccccc1C2=O` [1-aminoanthraquinone, reference compound] was tested, and the MIC ([1]; rapid screening) was over 100 µM and the MIC [2, 3] was 100 µM (≈ 22.3 µg/mL).
`O=C1c2ccccc2C(=O)c2c(OCCOCCOCCOCCOCCO)cccc21` [DNA3-49-1, 1-[2-[2-[2-[2-(2-Hydroxyethoxy)ethoxy]ethoxy]ethoxy]ethoxy]-9,10-anthraquinone] showed an MIC ([1]; rapid screening) of over 100 µM, a minimal effective concentration ([1]; rapid screening) of over 100 µM and an MIC [2, 3] of 10 µM (≈ 4.44 µg/mL). For the same molecule, the minimal effective concentration [2, 3] was 1 µM.
In the case of `CCN(CC)CCCNCc1ccc2c(c1)C(=O)c1ccccc1C2=O.O=P(O)(O)O.O=P(O)(O)O` [DNA2-25-1, 2-[Methylamino-N-(propyl-3′-N,N-diethylaminopropyl)]-9,10-anthraquinone diphosphate], the “LCIC (lowest-complete-inhibition concentration), Selenastrum capricornutum” value ([1]; rapid screening) is reported as 10,000 nM, the “LOEC … Selenastrum capricornutum” value ([1]; rapid screening) is reported as 10,000 nM and the MIC ([2]; rapid screening) is reported as 0.1 µM. For the same molecule, the minimal effective concentration ([2]; rapid screening) was 0.1 µM.
For `CC(C)(C)NCc1ccc2c(c1)C(=O)c1ccccc1C2=O.O=P(O)(O)O` [DNA3-33-1, 2-[Methylamino-N-(1′1′-dimethylethyl)]-9,10-anthraquinone monophosphate], the “LCIC (lowest-complete-inhibition concentration), Selenastrum capricornutum” value ([1]; rapid screening) was 10,000 nM, the “LOEC … Selenastrum capricornutum” value ([1]; rapid screening) was 1,000 nM and the “LCIC (lowest-complete-inhibition concentration), Oscillatoria perornata” value ([2]; rapid screening) was 1,000 nM. For the same molecule, the “LOEC … Oscillatoria perornata” value ([2]; rapid screening) was 1,000 nM.
In the case of `CCCCN(CCCC)Cc1ccc2c(c1)C(=O)c1ccccc1C2=O.O=P(O)(O)O` [DNA2-57-1, 2-[Methylamino-N,N-(dibutyl)]-9,10-anthraquinone monophosphate], the “LCIC (lowest-complete-inhibition concentration), Selenastrum capricornutum” value ([1]; rapid screening) is reported as 1e+06 nM, the “LOEC … Selenastrum capricornutum” value ([1]; rapid screening) is reported as 100,000 nM and the “LCIC (lowest-complete-inhibition concentration), Oscillatoria perornata” value ([2]; rapid screening) is reported as 1,000 nM. For the same molecule, the “LOEC … Oscillatoria perornata” value ([2]; rapid screening) was 1,000 nM.
